Experimental data taken from patent publication US9907800B2, “Kinase inhibitors and method of treating cancer” (University Health Network, priority 2010, dated 2018).
Counter-ions that a name gives are not always drawn.

What was measured:
human PLK4 = human PLK4 (Homo sapiens (Human), UniProt O00444); assay: PLK4 inhibition assay (indirect ELISA); assay type: biochemical; settings: read-out: PLK4 IC50 Ranges
Experimental: PLK4 activity was measured using an indirect ELISA detection system. […] The colourimetric reaction was allowed to continue for 5 minutes, followed by addition of stop solution (0.5 N sulphuric acid), and quantified by detection at 450 nm with either a monochromatic or filter based plate reader (Molecular Devices M5 or Beckman DTX880, respectively).
Compounds were pre-incubated in the presence of enzyme for 15 minutes prior to addition of ATP and the activity remaining quantified using the above described activity assay. […] The IC50 value was determined using a non-linear 4 point logistic curve fit (XLfit4, IDBS) with the formula; (A+(B/(1+((x/C)^D)))), where A=background value, B=range, C=inflection point, D=curve fit parameter.

Aurora B = Aurora B (Homo sapiens (Human), UniProt Q96GD4); assay: Aurora B inhibition assay (Z-Lyte); assay type: biochemical; settings: read-out: Aurora B IC50 Ranges
Chain of Aurora B (Q96GD4 whole entry): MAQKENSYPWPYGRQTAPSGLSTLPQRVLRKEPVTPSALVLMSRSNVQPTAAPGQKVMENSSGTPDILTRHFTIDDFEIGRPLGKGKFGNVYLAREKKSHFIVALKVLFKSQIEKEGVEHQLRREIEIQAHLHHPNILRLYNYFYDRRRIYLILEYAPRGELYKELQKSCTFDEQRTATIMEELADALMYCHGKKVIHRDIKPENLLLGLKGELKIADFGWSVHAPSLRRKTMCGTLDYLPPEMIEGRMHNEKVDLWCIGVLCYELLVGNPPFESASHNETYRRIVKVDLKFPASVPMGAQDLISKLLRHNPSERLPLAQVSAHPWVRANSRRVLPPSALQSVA
Experimental: Aurora B inhibition was determined using the Z-Lyte assay kit from Invitrogen. […] The % inhibition values were determined according to the manufacturer's directions and IC50 values were obtained using a non-linear 4 point logistic curve fit (XLfit4, IDBS)

Chain of human PLK4 (O00444 1-391): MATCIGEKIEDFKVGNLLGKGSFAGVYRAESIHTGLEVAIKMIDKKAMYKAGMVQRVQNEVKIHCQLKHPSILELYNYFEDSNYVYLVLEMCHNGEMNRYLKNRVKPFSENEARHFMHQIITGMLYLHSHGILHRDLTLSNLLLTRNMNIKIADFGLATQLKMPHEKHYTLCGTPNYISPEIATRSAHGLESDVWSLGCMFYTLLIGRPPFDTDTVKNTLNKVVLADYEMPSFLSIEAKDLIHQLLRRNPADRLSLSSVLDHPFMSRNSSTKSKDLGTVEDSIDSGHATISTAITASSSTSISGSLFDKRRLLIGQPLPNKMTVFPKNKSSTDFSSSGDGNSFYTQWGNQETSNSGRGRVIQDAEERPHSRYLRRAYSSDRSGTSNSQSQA

Q: What does the source list for `O=C1Nc2ccccc2[C@]12C[C@H]2c1ccc2c(/C=C/c3ccccn3)n[nH]c2c1` (relative stereo) [Example A53, (1R*,2S*)-2-(3-((E)-2-(pyridin-2-yl)vinyl)-1H-indazol-6-yl)spiro[cyclopropane-1,3′-indolin]-2′-one]?
A: IC50 (human PLK4): < 100 nM; IC50 (Aurora B): < 100 nM

Q: What does the source list for `N#Cc1ccc(/C=C/c2n[nH]c3cc([C@@H]4C[C@@]45C(=O)Nc4ccccc45)ccc23)cc1` (relative stereo) [Example A54, 4-((E)-2-(6-((1R*,2S*)-2′-oxospiro[cyclopropane-1,3′-indoline]-2-yl)-1H-indazol-3-yl)vinyl)benzonitrile]?
A: IC50 (human PLK4): < 100 nM; IC50 (Aurora B): 100 to 1000 nM

Q: What does the source list for `CN1CCN(c2ccc(-c3n[nH]c4cc([C@@H]5C[C@@]56C(=O)Nc5ccc(N)cc56)ccc34)cc2)CC1` (relative stereo) [Example A86, (1R*,2S*)-5′-amino-2-(3-(4-(4-methylpiperazin-1-yl)phenyl)-1H-indazol-6-yl)spiro[cyclopropane-1,3′-indolin]-2′-one]?
A: IC50 (human PLK4): < 100 nM; IC50 (Aurora B): 100 to 1000 nM

Q: `CN1C(=O)[C@@]2(C[C@H]2c2ccc3c(/C=C/c4ccc(CN5CCOCC5)cc4)n[nH]c3c2)c2ccccc21` (relative stereo) [Example A87, (1R*,2S*)-(E)-1′-methyl-2-(3-(4-(morpholinomethyl)styryl)-1H-indazol-6-yl)spiro[cyclopropane-1,3′-indolin]-2′-one 2,2,2-trifluoroacetate] was tested. Which IC50 (human PLK4) did it give?
A: < 100 nM

Q: What about the IC50 (Aurora B) of the same compound?
A: < 100 nM

Q: For `CN1CCN(c2ccc(-c3n[nH]c4cc([C@@H]5C[C@@]56C(=O)N(C)c5ccccc56)ccc34)cn2)CC1` (relative stereo) [Example A93, (1R*,2S*)-1′-methyl-2-(3-(6-(4-methylpiperazin-1-yl)pyridin-3-yl)-1H-indazol-6-yl)spiro[cyclopropane-1,3′-indolin]-2′-one bis(2,2,2-trifluoroacetate)], which IC50 (human PLK4) is on record?
A: < 100 nM

Q: And the IC50 (Aurora B)?
A: < 100 nM

Q: How did the IC50 (human PLK4) turn out when `CN1C(=O)[C@@]2(C[C@H]2c2ccc3c(/C=C/c4ccc(CN5CCCCC5)cc4)n[nH]c3c2)c2ccccc21` (relative stereo) [Example A95, (1R*,2S*)-(E)-1′-methyl-2-(3-(4-(piperidin-1-ylmethyl)styryl)-1H-indazol-6-yl)spiro[cyclopropane-1,3′-indolin]-2′-one 2,2,2-trifluoroacetate] was run?
A: < 100 nM

Q: And the IC50 (Aurora B)?
A: < 100 nM

Q: Which IC50 (human PLK4) does the source give for `CCN1CCN(c2ccc(-c3n[nH]c4cc([C@@H]5C[C@@]56C(=O)Nc5ccc(OC)cc56)ccc34)cc2)CC1` (relative stereo) [Example A98, (1R*,2S*)-2-(3-(4-(4-ethylpiperazin-1-yl)phenyl)-1H-indazol-6-yl)-5′-methoxyspiro[cyclopropane-1,3′-indolin]-2′-one 2,2,2-trifluoroacetate] here?
A: < 100 nM

Q: And the IC50 (Aurora B)?
A: < 100 nM

Q: Which IC50 (human PLK4) does the source give for `COc1ccc2c(c1)[C@]1(C[C@H]1c1ccc3c(-c4ccc(N5CCN(C)CC5)nc4)n[nH]c3c1)C(=O)N2C` (relative stereo) [Example A104, (1R*,2S*)-5′-methoxy-1′-methyl-2-(3-(6-(4-methylpiperazin-1-yl)pyridin-3-yl)-1H-indazol-6-yl)spiro[cyclopropane-1,3′-indolin]-2′-one bis(2,2,2-trifluoroacetate)] here?
A: < 100 nM

Q: And the IC50 (Aurora B)?
A: < 100 nM

Q: How did the IC50 (human PLK4) turn out when `NS(=O)(=O)c1cccc(-c2n[nH]c3cc([C@@H]4C[C@@]45C(=O)Nc4ccccc45)ccc23)c1` (relative stereo) [Example A130, 3-(6-((1R*,2S*)-2′-oxospiro[cyclopropane-1,3′-indoline]-2-yl)-1H-indazol-3-yl)benzenesulfonamide] was run?
A: < 100 nM

Q: And the IC50 (Aurora B)?
A: 100 to 1000 nM

Q: How did the IC50 (human PLK4) turn out when `COc1ccc2c(c1)[C@]1(C[C@H]1c1ccc3c(/C=C/c4cccc(CN5CCOCC5)c4)n[nH]c3c1)C(=O)N2` (relative stereo) [Example A133, (1R*,2S*)-5′-methoxy-2-(3-(3-(morpholinomethyl)styryl)-1H-indazol-6-yl)spiro[cyclopropane-1,3′-indolin]-2′-one 2,2,2-trifluoroacetate] was run?
A: < 100 nM

Q: And the IC50 (Aurora B)?
A: < 100 nM

Q: `COc1ccc2c(c1)[C@]1(C[C@H]1c1ccc3c(/C=C/c4cccc(CN(C)C)c4)n[nH]c3c1)C(=O)N2` (relative stereo) [Example A135, (1R*,2S*)-2-(3-(3-((dimethylamino)methyl)styryl-1H-indazol-6-yl)-5′-methoxyspiro[cyclopropane-1,3′-indolin]-2′-one 2,2,2-trifluoroacetate] was tested. Which IC50 (human PLK4) did it give?
A: < 100 nM

Q: What about the IC50 (Aurora B) of the same compound?
A: < 100 nM

Q: For `CCc1ccc2c(c1)[C@]1(C[C@H]1c1ccc3c(-c4ccc(N5CCN(C)CC5)cc4)n[nH]c3c1)C(=O)N2` (relative stereo) [Example A142, (1R*,2S*)-5′-ethyl-2-(3-(4-(4-methylpiperazin-1-yl)phenyl)-1H-indazol-6-yl)spiro[cyclopropane-1,3′-indolin]-2′-one 2,2,2-trifluoroacetate], which IC50 (human PLK4) is on record?
A: < 100 nM

Q: And the IC50 (Aurora B)?
A: < 100 nM

Q: With `COc1ccc2c(c1)[C@]1(C[C@H]1c1ccc3c(-c4ccc(CCN5CCOCC5)cc4)n[nH]c3c1)C(=O)N2` (relative stereo) [Example A159, (1R*,2S*)-5′-methoxy-2-(3-(4-(2-morpholinoethyl)phenyl)-1H-indazol-6-yl)spiro[cyclopropane-1,3′-indolin]-2′-one 2,2,2-trifluoroacetate] as the compound, how does the IC50 (human PLK4) read?
A: < 100 nM

Q: What about the IC50 (Aurora B) of the same compound?
A: < 100 nM

Q: Which IC50 (human PLK4) does the source give for `CN(C)Cc1ccc(/C=C/c2n[nH]c3cc([C@@H]4C[C@@]45C(=O)N(CC(N)=O)c4ccccc45)ccc23)cc1` (relative stereo) [Example A160, 2-((1R*,2S*)-(E)-2-(3-(4-((dimethylamino)methyl)styryl)-1H-indazol-6-yl)-2′-oxospiro[cyclopropane-1,3′-indoline]-1′-yl)acetamide 2,2,2-trifluoroacetate] here?
A: < 100 nM

Q: And the IC50 (Aurora B)?
A: < 100 nM

Q: Which results are given for `Cc1ccc2c(c1)[C@]1(C[C@H]1c1ccc3c(-c4ccc(N5CCN(C)CC5)cc4)n[nH]c3c1)C(=O)N2` (relative stereo) [Example A173, (1R*,2S)-5′-methyl-2-(3-(4-(4-methylpiperazin-1-yl)phenyl)-1H-indazol-6-yl)spiro[cyclopropane-1,3′-indolin]-2′-one 2,2,2-trifluoroacetate]?
A: IC50 (human PLK4): < 100 nM; IC50 (Aurora B): < 100 nM

Q: What does the source list for `COc1ccc2c(c1)[C@]1(C[C@H]1c1ccc3c(/C=C/c4ccc(N5CCN(C)CC5)cc4)n[nH]c3c1)C(=O)N2` (relative stereo) [Example A174, (1R*,2S*)-(E)-5′-methoxy-2-(3-(4-(4-methylpiperazin-1-yl)styryl)-1H-indazol-6-yl)spiro[cyclopropane-1,3′-indolin]-2′-one 2,2,2-trifluoroacetate]?
A: IC50 (human PLK4): < 100 nM; IC50 (Aurora B): < 100 nM

Q: How did the IC50 (human PLK4) turn out when `COCCN1C(=O)[C@@]2(C[C@H]2c2ccc3c(/C=C/c4ccc(CN(C)C)cc4)n[nH]c3c2)c2ccccc21` (relative stereo) [Example A180, (1R*,2S*)-(E)-2-(3-(4-((dimethylamino)methyl)styryl)-1H-indazol-6-yl)-1′-(2-methoxyethyl)spiro[cyclopropane-1,3′-indolin]-2′-one 2,2,2-trifluoroacetate] was run?
A: < 100 nM

Q: What about the IC50 (Aurora B) of the same compound?
A: < 100 nM

Q: `COc1ccc2c(c1)[C@]1(C[C@H]1c1ccc3c(/C=C/c4csc(CN(C)C)c4)n[nH]c3c1)C(=O)N2` (relative stereo) [Example A181, (1R,2S)-2-(3-((E)-2-(5-((dimethylamino)methyl)thiophen-3-yl)vinyl-1H-indazol-6-yl)-5′-methoxyspiro[cyclopropane-1,3′-indolin]-2′-one 2,2,2-trifluoro acetate] was tested. Which IC50 (human PLK4) did it give?
A: < 100 nM

Q: And the IC50 (Aurora B)?
A: < 100 nM

Q: Which results are given for `COc1ccc2c(c1)[C@]1(C[C@H]1c1ccc3c(I)n[nH]c3c1)C(=O)N2` [Example A7, (1R,2S)-2-(3-iodo-1H-indazol-6-yl)-5′-methoxyspiro[cyclopropane-1,3′-indolin]-2′-one]?
A: IC50 (human PLK4): < 100 nM; IC50 (Aurora B): 100 to 1000 nM

Q: Which results are given for `COc1ccc2c(c1)[C@@]1(C[C@@H]1c1ccc3c(-c4ccc(N5CCN(C)CC5)nc4)n[nH]c3c1)C(=O)N2` [Example A15, (1S,2R)-5′-methoxy-2-(3-(6-(4-methylpiperazin-1-yl)pyridin-3-yl)-1H-indazol-6-yl)spiro[cyclopropane-1,3′-indolin]-2′-one]?
A: IC50 (human PLK4): < 100 nM; IC50 (Aurora B): > 1000 nM

Q: Which results are given for `COc1ccc2c(c1)[C@@]1(C[C@@H]1c1ccc3c(-c4ccc(N5CCNCC5)cc4)n[nH]c3c1)C(=O)N2` [Example A50, (1S,2R)-5′-methoxy-2-(3-(4-(piperazin-1-yl)phenyl)-1H-indazol-6-yl)spiro[cyclopropane-1,3′-indolin]-2′-one 2,2,2-trifluoroacetate]?
A: IC50 (human PLK4): < 100 nM; IC50 (Aurora B): < 100 nM

Q: With `COc1ccc2c(c1)[C@]1(C[C@H]1c1ccc3c(/C=C/c4ccc5c(c4)CN(C)CC5)n[nH]c3c1)C(=O)N2` [Example A64, (1R,2S)-5′-methoxy-2-(3-((E)-2-(2-methyl-1,2,3,4-tetrahydroisoquinolin-7-yl)vinyl)-1H-indazol-6-yl)spiro[cyclopropane-1,3′-indolin]-2′-one 2,2,2-trifluoroacetate salt] as the compound, how does the IC50 (human PLK4) read?
A: < 100 nM

Q: What about the IC50 (Aurora B) of the same compound?
A: < 100 nM

Q: `CN1CCc2ccc(/C=C/c3n[nH]c4cc([C@@H]5C[C@@]56C(=O)Nc5ccccc56)ccc34)cc2C1` [Example A65, (1R,2S)-2-(3-((E)-2-(2-methyl-1,2,3,4-tetrahydroisoquinolin-7-yl)vinyl)-1H-indazol-6-yl)spiro[cyclopropane-1,3′-indolin]-2′-one 2,2,2-trifluoroacetate salt] was tested. Which IC50 (human PLK4) did it give?
A: < 100 nM

Q: And the IC50 (Aurora B)?
A: < 100 nM

Q: `COc1ccc2c(c1)[C@]1(C[C@H]1c1ccc3c(/C=C/c4ccc5c(c4)CNCC5)n[nH]c3c1)C(=O)N2` [Example A66, (1R,2S)-5′-methoxy-2-(3-((E)-2-(1,2,3,4-tetrahydroisoquinolin-7-yl)vinyl)-1H-indazol-6-yl)spiro[cyclopropane-1,3′-indolin]-2′-one 2,2,2-trifluoroacetate salt] was tested. Which IC50 (human PLK4) did it give?
A: < 100 nM

Q: What about the IC50 (Aurora B) of the same compound?
A: < 100 nM

Q: `COc1ccc2c(c1)[C@]1(C[C@H]1c1ccc3c(-c4ccc(OCCN5CCCCC5)cc4)n[nH]c3c1)C(=O)N2` [Example A67, (1R,2S)-5′-methoxy-2-(3-(4-(2-(piperidin-1-yl)ethoxy)phenyl)-1H-indazol-6-yl)spiro[cyclopropane-1,3′-indolin]-2′-one 2,2,2-trifluoroacetate salt] was tested. Which IC50 (human PLK4) did it give?
A: < 100 nM

Q: What about the IC50 (Aurora B) of the same compound?
A: < 100 nM
